Literature values in patent publication US20190175504A1, “Carbohydrate-Derivatized Liposomes for Targeting Cellular Carbohydrate Recognition Domains of Ctl/Ctld Lectins, and Intracellular Delivery of Therapeutically Active Compounds” (RODOS BioTarget GmbH, priority 2004, published 2019).

Assays:
[1] = tested on: mouse model of liver damage
[2] = tested on: bile duct-ligated mouse
[3] = tested on: HCV-positive patients

Structure (SMILES): Cc1ccc(C(=O)Nc2ccc(S(=O)(=O)O)c3cc(S(=O)(=O)O)cc(S(=O)(=O)O)c23)cc1NC(=O)c1cccc(NC(=O)Nc2cccc(C(=O)Nc3cc(C(=O)Nc4ccc(S(=O)(=O)O)c5cc(S(=O)(=O)O)cc(S(=O)(=O)O)c45)ccc3C)c2)c1 [suramin]
- apoptosis in liver damage [1]: inhibit apoptosis

Structure (SMILES): C[C@H](NC(=O)C(=O)Nc1ccccc1C(C)(C)C)C(=O)N[C@@H](CC(=O)O)C(=O)COc1c(F)c(F)cc(F)c1F [IDN-6556]
- antifibrotic effect [2]: proven beneficial as an antifibrotic agent
- pathologic values of liver parameters (e.g., ALT) [3]: significantly reduces
